Data: US20240174675A1, “SMALL MOLECULE REGULATORS OF ALVEOLAR TYPE 2 CELL PROLIFERATION FOR THE TREATMENT OF PULMONARY DISEASES” (THE SCRIPPS RESEARCH INSTITUTE, priority 2021, published 2024)
“Also recorded” adds a separate entry of the source.

Key:
Human DPP4 = target: T1, Human DPP4 (Homo sapiens, UniProt P27487); experiment: DPP4 activity assay (DPP4 Activity Assay Kit, fluorescent substrate); format: biochemical; conditions: Human DPP4; read-out: DPP4 inhibition IC50 [nM])
T1 construct: purchased Sigma-Aldrich MAK088
Method in brief: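 Human DPP4 activity measured with a commercial kit: test compound in assay buffer mixed with a fluorogenic substrate cleaved by the enzyme. Fluorescence read every 1 minute over 20 minutes.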

[1] = Pharmacokinetic profiling, plasma and lung levels after intratracheal or inhalation delivery in the mouse; format: in vivo; conditions: for Kp: read-out: AUC ratio; for AUC(0-t): read-out: AUC0-24; for MRT inf: read-out: MRT0-inf
[2] = Pharmacokinetic profiling, plasma and lung levels after intratracheal delivery in the rat; format: in vivo; conditions: Male, Sprague Dawley strain, 2 mg/kg, 1 mg/ml in PBS; for MRT inf: read-out: MRT0-inf
Method: To assess the time course of the plasma and lung exposure of compounds disclosed herein, rodents were dosed IT with an exemplary compound of the present disclosure. The plasma and lung samples were taken at different time points. The drug levels were measured by LCMS.

[3] = tested on: LPS induced acute lung injury in mice; experiment: LPS-induced acute lung injury (ALI) model; format: in vivo, C57BL/6J mice; conditions: mouse ALI model; every other day via intratracheal administration
Method: LPS from E. coli […] (Sigma) was used to induce acute lung injury in mice. Body weight matched (19 gram-22 gram) female C57BL/6J mice at 9-11 weeks of age were selected to use in ALI model.
For oral delivery, DPP4 inhibitors were dissolved in PBS resulting in clear solution. Vehicle control or DPP4 inhibitors were dosed at 10 ml/kg through oral gavage once or twice a day selected based on PK profile. For intratracheally delivered DPP4 inhibitors, compounds were dissolved in PBS resulting in clear solution. Vehicle control or DPP4 inhibitors were dosed at 2 ml/kg through a 22 g flexible catheter every other day.
LPS (1.5 mg/kg for testing orally delivered DPP4 inhibitors and 1.2 mg/kg for testing intratracheally delivered DPP4 inhibitors) or PBS in sham group was intratracheally injection into mice lung at day 0. DPP4 inhibitors or vehicle control were given to mice starting from one day before LPS injection (day −1).
All animals were sacrificed at day 3.5 after LPS injection. Bronchoalveolar lavage fluid (BALF) was retrieved using standard method. 1 ml 4% formalin was used to inflate the lung, which was subsequently fixed in 4% formalin for 24 hours and preserved in 70% EtOH until histological process.
For readouts, total protein content in BALF was quantified using BCA assay; pulmonary inflammation and damage were assessed using H & E staining.

[4] = tested on: bleomycin induced lung fibrosis in mice; experiment: Bleomycin induced lung fibrosis model; format: in vivo, C57BL/6J mice; conditions: for efficacy in combination with Nintedanib: Compound 46 0.5 mg/kg IT, E4D, Bliss independence, BALF protein content and Ashcroft scoring (FIG. 4)
Method: Bleomycin (Hospira) was used to induce lung fibrosis in mice. Body weight matched (24 gram˜28 gram) male C57BL/6J mice at 10-12 weeks of age were selected to use in bleomycin model.
For oral delivery, DPP4 inhibitors were dissolved in PBS resulting in clear solution. Vehicle control or DPP4 inhibitors were dosed at 10 ml/kg through oral gavage once or twice a day selected based on PK profile. For intratracheally delivered DPP4 inhibitors, compounds were dissolved in PBS resulting in clear solution. Vehicle control or DPP4 inhibitors were dosed at 2 ml/kg through a 22 g flexible catheter every four days.
0.5 U/kg Bleomycin or PBS in sham group was intratracheally injected into mice lung at day 0. DPP4 inhibitors or vehicle control were given to mice starting from one day before bleomycin injection (day −1).
All animals were sacrificed at day 20 after bleomycin injection. Bronchoalveolar lavage fluid (BALF) was retrieved using standard method. 1 ml 4% formalin was used to inflate the lung, which was subsequently fixed in 4% formalin for 24 hours and preserved in […] until histological process.
For readouts, body weight was measured every day; total protein content in BALF was quantified using BCA assay; pulmonary fibrosis was assessed using Masson's trichrome staining.

AEC2s = experiment: Single cell RNA-sequencing from the lungs of mice (proliferating cell types); format: in vivo; conditions: mouse lung, 0.5 mg/kg IT; for cell types proliferative in response to treatment: animals sacrificed 2 and 4 days after dosing (FIG. 5)
Method: Single cell RNA-sequencing from the lungs of mice was performed to understand which cell types are proliferative in response to compound 46 treatment.

[5] = Mouse, Male, CD-1 strain, Intratracheal, 2 mg/kg, 1 mg/ml in PBS, Lung
[6] = Mouse, Male, CD-1 strain, Intratracheal, 2 mg/kg, 1 mg/ml in PBS, Plasma
[7] = inhaled or intranasal, Mouse, Male, CD-1 strain, Inhalation, 10 mg/ml in PBS for 15 mins, Lung
[8] = inhaled or intranasal, Mouse, Male, CD-1 strain, Inhalation, 10 mg/ml in PBS for 15 mins, Plasma
[9] = inhaled or intranasal, Mouse, Male, CD-1 strain, Intratracheal, 2 mg/kg, 1 mg/ml in PBS, Lung
[10] = inhaled or intranasal, Mouse, Male, CD-1 strain, Intratracheal, 2 mg/kg, 1 mg/ml in PBS, Plasma
[11] = mouse, IT dosing at 2 mg/kg (FIG. 2)

T1 sequence (P27487 whole entry): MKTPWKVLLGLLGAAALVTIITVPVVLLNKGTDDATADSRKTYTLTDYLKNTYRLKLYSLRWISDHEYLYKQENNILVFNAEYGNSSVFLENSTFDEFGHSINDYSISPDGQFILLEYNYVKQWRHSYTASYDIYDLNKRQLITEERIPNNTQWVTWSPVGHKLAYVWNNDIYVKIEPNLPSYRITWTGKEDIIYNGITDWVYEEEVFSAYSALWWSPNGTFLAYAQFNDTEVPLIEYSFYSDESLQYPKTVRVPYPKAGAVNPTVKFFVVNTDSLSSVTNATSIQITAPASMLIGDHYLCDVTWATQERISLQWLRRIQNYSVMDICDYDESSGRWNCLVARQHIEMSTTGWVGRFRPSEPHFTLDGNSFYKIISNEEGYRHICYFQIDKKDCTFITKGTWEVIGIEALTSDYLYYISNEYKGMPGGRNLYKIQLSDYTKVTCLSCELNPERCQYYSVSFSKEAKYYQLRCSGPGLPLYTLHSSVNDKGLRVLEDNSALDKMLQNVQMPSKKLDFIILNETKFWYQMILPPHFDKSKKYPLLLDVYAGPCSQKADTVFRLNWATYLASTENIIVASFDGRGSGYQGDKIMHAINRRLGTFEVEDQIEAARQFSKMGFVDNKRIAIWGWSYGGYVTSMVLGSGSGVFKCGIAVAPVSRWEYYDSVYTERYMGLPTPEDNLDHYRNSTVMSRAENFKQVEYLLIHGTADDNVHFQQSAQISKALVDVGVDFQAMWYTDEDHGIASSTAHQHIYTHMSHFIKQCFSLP

CCCCCCN(Cc1cn(CCOCCOCCOC(=O)c2nc(C(F)(F)F)n3c2CN(C(=O)C[C@H](N)Cc2cc(F)c(F)cc2F)CC3)nn1)C[C@H](O)[C@@H](O)[C@H](O)[C@H](O)CO [Compound 46, 2-(2-(2-(4-((hexyl(2,3,4,5,6-pentahydroxyhexyl)amino)methyl)-1H-1,2,3-triazol-1-yl)ethoxy)ethoxy)ethyl 7-((R)-3-amino-4-(2,4,5-trifluorophenyl)butanoyl)-3-(trifluoromethyl)-5,6,7,8-tetrahydroimidazo[1,5-a]pyrazine-1-carboxylate]
IC50 (Human DPP4): 0.15 nM
AUC0-inf ([1]; Mouse, Male, CD-1 strain, Inhalation, 10 mg/ml in PBS for 15 mins, Lung): 509,951 ng · h/g
AUC ratio ([1]; Mouse, Male, CD-1 strain, Inhalation, 10 mg/ml in PBS for 15 mins, Plasma): 1
AUC0-24 [1, 5]: 258,902 ng · h/g
AUC0-inf [1, 5]: 1,082,408 ng · h/g
Tmax [1, 5]: 0.25 h
Kp [1, 5]: 1350
AUC ratio [1, 6]: 1
AUC(0-t) [1, 6]: 728 ng·h/mL
AUC0-inf ([1]; Mouse, Male, CD-1 strain, Intratracheal, 2 mg/kg, 1 mg/ml in PBS, Plasma, read-out: AUC0-inf): 729 ng·h/mL
MRT inf [1, 6]: 1.88 h
Cmax [1, 7]: 20900 ng/g
Tmax [1, 7]: 0.25 h
Kp [1, 7]: 9240
Cmax [1, 8]: 35.9 ng/mL
Tmax [1, 8]: 0.5 h
half-life [1, 8]: 1.5 h
AUC(0-t) [1, 8]: 53.4 ng·h/mL
AUC0-inf ([1]; inhaled or intranasal, Mouse, Male, CD-1 strain, Inhalation, 10 mg/ml in PBS for 15 mins, Plasma, read-out: AUC0-inf): 55.2 ng·h/mL
MRT inf [1, 8]: 1.69 h
Cmax [1, 9]: 24600 ng/g
half-life [1, 9]: 54.1 h
MRT inf [1, 9]: 80.6 h
Cmax [1, 10]: 435 ng/mL
Tmax [1, 10]: 0.25 h
half-life [1, 10]: 1.28 h
plasma and lung exposure profiles compared to retagliptin [1, 11]: significantly higher plasma and lung exposure profiles compared to retagliptin
time retained in the lung [1, 11]: 7 days
AUC0-24 ([2]; Lung): 658004 ng·h/g
AUC0-inf ([2]; Lung): 4738852 ng·h/g
AUC ratio ([2]; Plasma): 1
Cmax ([2]; inhaled or intranasal, Lung): 41400 ng/g
Tmax ([2]; inhaled or intranasal, Lung): 0.25 h
half-life ([2]; inhaled or intranasal, Lung): 119 h
Kp ([2]; inhaled or intranasal, Lung, read-out: AUC ratio): 145
MRT inf ([2]; inhaled or intranasal, Lung): 186 h
Cmax ([2]; inhaled or intranasal, Plasma): 14700 ng/mL
Tmax ([2]; inhaled or intranasal, Plasma): 0.25 h
half-life ([2]; inhaled or intranasal, Plasma): 68.8 h
AUC(0-t) ([2]; inhaled or intranasal, Plasma, read-out: AUC0-24): 18000 ng·h/mL
AUC0-inf ([2]; inhaled or intranasal, Plasma, read-out: AUC0-inf): 18600 ng·h/mL
MRT inf ([2]; inhaled or intranasal, Plasma): 6 h
minimal efficacious dose [3]: 0.02 mg/kg
efficacy in combination with Nintedanib ([4]; bleomycin model, listed as Compound 46, 0.5 mg/kg): synergistic efficacy
efficacy in combination with Nintedanib ([4]; bleomycin model, listed as compound 46, 0.5 mg/kg): impressive and synergistic efficacy
minimal efficacious dose ([4]; bleomycin model, every four-day intratracheal dosing regime): 0.5 mg/kg
efficacy in the bleomycin induced pulmonary fibrosis model ([4]; mouse, intratracheally 0.5 mg/kg every four days, body weight, BALF protein, fibrotic area, modified Ashcroft scores (FIG. 3)): displayed efficacy; also recorded: rescue of key metrics including body weight, BALF protein content, fibrotic area, and histological scoring
accumulation of AEC2s after treatment (AEC2s; 2 and 4 days after dosing): time-dependent accumulation of AEC2s
cell types proliferative in response to treatment (AEC2s; listed as Compound 46, 0.5 mg/kg): selectively expanded AEC2s
cell types proliferative in response to treatment (AEC2s; listed as compound 46, 0.5 mg/kg): only cycling and transitional AEC2s were induced to proliferate
